Legend:
Assay type in all cases: functional, organism-based; call rule not given here
Candida albicans [1] = assay: Compound was tested for growth inhibition against Candida albicans (CIP 1180.79)
Saccharomyces cerevisiae [2] = assay: Compound was tested for growth inhibition against Saccharomyces cerevisiae (ATCC 28383)
Candida albicans [3] = assay: Compound was tested for growth inhibition against Candida albicans (CIP 1180.79); Inactive over 250 uM
Saccharomyces cerevisiae [4] = assay: Compound was tested for growth inhibition against Saccharomyces cerevisiae (ATCC 28383); Inactive over 250 uM
Candida albicans [5] = assay: Compound was tested for growth inhibition against Candida albicans (CIP 1180.79); Slow development (>80-<100 uM)
Saccharomyces cerevisiae [6] = assay: Compound was tested for growth inhibition against Saccharomyces cerevisiae (ATCC 28383); Slow development (>80-<100 uM)

Structure (SMILES)	IC50 (Candida albicans [1]) [µM]	IC50 (Saccharomyces cerevisiae [2]) [µM]	IC50 (Candida albicans [3])	IC50 (Saccharomyces cerevisiae [4])	IC50 (Candida albicans [5]) [µM]	IC50 (Saccharomyces cerevisiae [6]) [µM]
CC(C)CCC[C@@H](C)C1CC[C@H]2[C@@H]3C[C@H](N)[C@H]4C[C@@H](O)CC[C@]4(C)[C@H]3CC[C@]12C (some centres not stated)	< 31	< 15	–	–	–	–
CC(C)CCC[C@@H](C)C1CC[C@H]2[C@@H]3C[C@H]([N+](=O)[O-])[C@H]4C[C@@H](O)CC[C@]4(C)[C@H]3CC[C@]12C (some centres not stated)	–	–	Not Active	Not Active	–	–
CC(=O)N[C@H]1C[C@@H]2[C@H](CC[C@]3(C)C([C@H](C)CCCC(C)C)CC[C@@H]23)[C@@]2(C)CC[C@H](O)C[C@H]12 (some centres not stated)	–	–	–	–	> 80	> 80
CC(=O)N[C@@H]1C[C@@H]2[C@H](CC[C@]3(C)C([C@H](C)CCCC(C)C)CC[C@@H]23)[C@@]2(C)CC[C@H](O)C[C@H]12 (some centres not stated)	–	–	–	–	> 80	> 80
CC(C)CCC[C@@H](C)C1CC[C@H]2[C@@H]3C[C@@H](N)C4C[C@@H](O)CC[C@]4(C)[C@H]3CC[C@]12C (some centres not stated)	< 7	< 15	–	–	–	–
CC(C)CCC[C@@H](C)C1CC[C@H]2[C@@H]3C[C@@H]([N+](=O)[O-])[C@H]4C[C@@H](O)CC[C@]4(C)[C@H]3CC[C@]12C (some centres not stated)	–	–	Not Active	Not Active	–	–

Reference: ChEMBL document CHEMBL1130719, “Synthesis of 6(alpha, beta)-aminocholestanols as ergosterol biosynthesis inhibitors” (Bioorg Med Chem Lett, 1998)
